PMC4704483 (2015)

Tested on: (CUG)100, internal fluorescein-labeled (RNA, repeat) CUGCUGCUGCUGCUGCUGCUGCUGCUGCUGCUGCUGCUGCUGCUGCUGCUGCUGCUGCUGCUGCUGCUGCUGCUGCUGCUGCUGCUGCUGCUGCUGCUGCUGCUGCUGCUGCUGCUGCUGCUGCUGCUGCUGCUGCUGCUGCUGCUGCUGCUGCUGCUGCUGCUGCUGCUGCUGCUGCUGCUGCUGCUGCUGCUGCUGCUGCUGCUGCUGCUGCUGCUGCUGCUGCUGCUGCUGCUGCUGCUGCUGCUGCUGCUGCUGCUGCUGCUGCUGCUGCUGCUGCUGCUGCUGCUGCUGCUGCUG
Test: fluorescence titration
Conditions: data not shown

Compound	K d (salt form not stated) [nM]	K d [nM]
CC[C@H]1OC(=O)[C@H](C)[C@@H](O[C@H]2C[C@@](C)(OC)[C@@H](O)[C@H](C)O2)[C@H](C)[C@@H](O[C@@H]2O[C@H](C)C[C@H](N(C)C)[C@H]2O)[C@](C)(O)C[C@@H](C)C(=O)[C@H](C)[C@@H](O)[C@]1(C)O	< 1000	
NC[C@@H]1O[C@H](O[C@H]2[C@@H](O)[C@H](O[C@@H]3[C@@H](O)[C@H](N)C[C@H](N)[C@H]3O[C@H]3O[C@H](CN)[C@@H](O)[C@H](O)[C@H]3N)O[C@@H]2CO)[C@H](N)[C@@H](O)[C@@H]1O		< 1000
